Drawing on ChEMBL document CHEMBL4033728, “Synthesis and structure-activity relationship study of novel quinazolinone-based inhibitors of MurA” (Bioorg Med Chem Lett, 2017), this text covers MIC, Activity and IC50 for 58 compounds.

Molecules are shown by their SMILES. Converted amounts (≈) assume the structure as drawn.

For test [1], the system named is Staphylococcus aureus. Put plainly: Antibacterial activity against Staphylococcus aureus ATCC 29213 incubated for 18 to 24 hrs by broth microdilution method. It counts as functional.
Test [2] has as its system Escherichia coli. Description: Inhibition of Escherichia coli MurA assessed as residual enzyme activity at 100 uM using UDP-GlcNAc and PEP as substrate incubated for 15 mins by Malachite green method.
For test [3], the system named is Escherichia coli. Put plainly: Antibacterial activity against Escherichia coli ATCC 25922 incubated for 18 to 24 hrs by broth microdilution method. It counts as functional.
Test [4] is described as follows: Inhibition of Escherichia coli MurA using UDP-GlcNAc and PEP as substrate incubated for 15 mins by Malachite green method.

As to `Oc1nc(-c2ccc(F)cc2)nc2ccccc12`, the MIC in test [1] and in test [3] was over 128 µg/mL each time. For the same compound, in test [2], the Activity was 89%.
For `N#Cc1ccc(-c2nc3ccccc3c(=O)[nH]2)cc1`, the MIC in test [1] and in test [3] was over 128 µg/mL in each case. Moreover, in test [2], the Activity came to 54%.
For the compound `O=c1[nH]c(-c2ccc(N3CCOCC3)nc2)nc2ccccc12`, the MIC in test [1] and in test [3] was over 128 µg/mL each time. Besides, in test [2], the Activity was 64%.
As to `O=c1[nH]c(/C=C/c2ccccc2)nc2ccccc12`, the MIC in test [1] and in test [3] was over 128 µg/mL each time. Further, 51 µM corresponded to half-maximal inhibition in test [4] (IC50).
For `O=c1[nH]c(-c2ccc(-c3ccccc3)cc2)nc2ccccc12`, the MIC in test [1] and in test [3] was over 128 µg/mL in each case. Besides, it took 21 µM to reach half-maximal inhibition in test [4] (IC50).
As for `O=c1[nH]c(-c2c[nH]cn2)nc2ccccc12`, the MIC in test [1] and in test [3] was over 128 µg/mL throughout. The Activity in test [2] is 88%.
As to `O=c1[nH]c(-c2cccc(OCc3ccc(F)cc3)c2)nc2ccccc12`, the MIC in test [1] and in test [3] was over 128 µg/mL throughout. Also, the IC50 in test [4] is 19 µM.
Regarding `Cc1ccc(-c2nc3ccccc3c(=O)[nH]2)o1`, the minimum inhibitory concentration (MIC) in test [1] and in test [3] was over 128 µg/mL each time. For the same compound, half-maximal inhibition in test [4] (IC50) was put at 81 µM.
`O=c1[nH]c(-c2cccc(Br)n2)nc2ccccc12`: the MIC in test [1] and in test [3] was over 128 µg/mL in each case. Further, the Activity in test [2] turned out to be 91%.
Turning to `O=c1[nH]c(-c2cccc(Br)c2)nc2ccccc12`, the MIC in test [1] and in test [3] was over 128 µg/mL in each case. In addition, the Activity in test [2] amounted to 65%.
For `O=c1[nH]c(-c2ccco2)nc2ccccc12`, the MIC in test [1] and in test [3] was over 128 µg/mL each time. In addition, the IC50 in test [4] is 101 µM.
For the compound `O=c1[nH]c(-c2ccc(O)cc2)nc2ccccc12`, the MIC in test [1] and in test [3] was over 128 µg/mL in each case. Further, the Activity in test [2] was 91%.
As for `O=c1[nH]c(-c2ccc(Cl)cc2)nc2ccccc12`, the MIC in test [1] and in test [3] was over 128 µg/mL in each case. In test [2], the Activity was 72%.
On to `O=c1c2ccccc2nc(-c2ccco2)n1Cc1ccccc1`, for which the MIC in test [1] and in test [3] was over 128 µg/mL in each case. Besides, the Activity in test [2] was 100%.
As for `O=c1[nH]c(-c2cccc(OCc3ccc(Cl)cc3)c2)nc2ccccc12`, the MIC in test [1] and in test [3] was over 128 µg/mL in each case. Further, in test [4], the IC50 came out at 8 µM.
As to `O=C(O)c1ccc(-c2nc3ccccc3c(=O)[nH]2)cc1`, the MIC in test [1] and in test [3] was over 128 µg/mL throughout. Further, the Activity in test [2] was determined as 86%.
`Cn1c(-c2ccco2)nc2ccccc2c1=O`: the MIC in test [1] and in test [3] was over 128 µg/mL each time. In test [4], this compound displayed an IC50 of 72 µM.
With `CC(C)n1c(-c2ccc([N+](=O)[O-])o2)nc2ccccc2c1=O`, the minimal inhibitory concentration (MIC) worked out at 8 µg/mL (≈ 26.7 µM) in test [1] and 2 µg/mL (≈ 6.68 µM) in test [3]. The IC50 in test [4] came to 87 µM.
`Oc1nc(-c2ccncc2)nc2ccccc12`: the MIC in test [1] and in test [3] was over 128 µg/mL throughout. Also, the Activity in test [2] was 82%.
Turning to `O=c1[nH]c(-c2ccc([N+](=O)[O-])o2)nc2ccccc12`, the MIC worked out at 8 µg/mL (≈ 31.1 µM) in test [1] and 1 µg/mL (≈ 3.89 µM) in test [3]. The compound further showed an IC50 in test [4] of 47 µM.
`Cc1ccc(COc2ccc(-c3nc4ccccc4c(=O)[nH]3)cc2)cc1`: the MIC in test [1] and in test [3] was over 128 µg/mL each time. In test [2], the Activity was 97%.
With `O=c1[nH]c(-c2ccc3c(c2)OCO3)nc2ccccc12`, the MIC in test [1] and in test [3] was over 128 µg/mL throughout. For the same compound, the Activity in test [2] turned out to be 83%.
`O=c1[nH]c(-c2ccc(-c3ccccc3)s2)nc2ccsc12`: the MIC is at least 128 µg/mL in test [1] and over 128 µg/mL in test [3]. The compound also registered an IC50 in test [4] of 22 to 30 µM.
In the same order, the values of `COC(=O)c1ccc(COc2cccc(-c3nc4ccccc4c(=O)[nH]3)c2)cc1` are over 128 µg/mL, over 128 µg/mL and 21 µM.
Regarding `COC(=O)Cn1c(-c2ccco2)nc2ccccc2c1=O`, the MIC in test [1] and in test [3] was over 128 µg/mL throughout. For the same compound, the Activity in test [2] amounted to 66%.
Regarding `O=c1[nH]c(-c2cccc(OCc3ccccc3)c2)nc2ccccc12`, the minimal inhibitory concentration (MIC) in test [1] and in test [3] was over 128 µg/mL each time. In test [4], this compound yielded an IC50 of 23 µM.
On to `O=c1[nH]c(-c2ccoc2)nc2ccccc12`, for which the MIC in test [1] and in test [3] was over 128 µg/mL each time. The Activity in test [2] came out at 91%.
With `COc1ccc2occ(-c3nc4ccccc4c(=O)[nH]3)c(=O)c2c1`, the MIC in test [1] and in test [3] was over 128 µg/mL in each case. The Activity in test [2] was found to be 100%.
With `N#Cc1cccc(-c2nc3ccccc3c(=O)[nH]2)c1`, the MIC in test [1] and in test [3] was over 128 µg/mL throughout. The Activity in test [2] amounted to 62%.
As to `O=c1[nH]c(-c2cccc(O)c2)nc2ccccc12`, the MIC in test [1] and in test [3] was over 128 µg/mL in each case. Besides, the Activity in test [2] is 80%.
As to `O=c1[nH]c(-c2cccc(Cl)c2)nc2ccccc12`, the minimal inhibitory concentration (MIC) in test [1] and in test [3] was over 128 µg/mL each time. Moreover, in test [2], the Activity was 68%.
Consider `COC(=O)c1cccc(COc2ccc(-c3nc4ccccc4c(=O)[nH]3)cc2)c1`, for which the MIC in test [1] and in test [3] was over 128 µg/mL throughout. For the same compound, the Activity in test [2] is 100%.
Turning to `O=c1[nH]c(-c2ccc(-c3cc[nH]n3)o2)nc2ccccc12`, the minimal inhibitory concentration (MIC) in test [1] and in test [3] was over 128 µg/mL each time. Further, the Activity in test [2] came out at 100%.
`COc1ccc(-c2nc(O)c3ccccc3n2)cc1`: the MIC in test [1] and in test [3] was over 128 µg/mL in each case. Also, in test [2], the Activity came out at 71%.
Turning to `COC(=O)c1ccc(COc2ccc(-c3nc4ccccc4c(=O)[nH]3)cc2)cc1`, the MIC in test [1] and in test [3] was over 128 µg/mL each time. The Activity in test [2] was found to be 100%.
With `O=c1[nH]c(-c2ccc([N+](=O)[O-])cc2)nc2ccccc12`, the MIC in test [1] and in test [3] was over 128 µg/mL in each case. Besides, the Activity in test [2] was 99%.
For the compound `O=c1[nH]c(-c2cn3ccsc3n2)nc2ccccc12`, the MIC in test [1] is 128 µg/mL (≈ 477 µM); in test [3] it was over 128 µg/mL. In addition, the Activity in test [2] was 82%.
Take `O=c1[nH]c(-c2cccc(OCc3cccc(Cl)c3)c2)nc2ccccc12`: the minimum inhibitory concentration (MIC) in test [1] and in test [3] was over 128 µg/mL in each case. Further, the Activity in test [2] amounted to 98%.
Consider `O=c1[nH]c(-c2ccc(O)cc2)nc2ccsc12`, for which the minimum inhibitory concentration (MIC) in test [1] and in test [3] was over 128 µg/mL each time. For the same compound, in test [2], the Activity is 80%.
As to `CC(C)n1c(-c2ccco2)nc2ccccc2c1=O`, the MIC in test [1] is 32 µg/mL (≈ 126 µM); in test [3], over 128 µg/mL. Also, in test [2], the Activity was found to be 93%.
In the case of `O=c1[nH]c(-c2ccc(-c3ccncc3)cc2)nc2ccccc12`, the minimum inhibitory concentration (MIC) in test [1] and in test [3] was over 128 µg/mL each time. The Activity in test [2] was found to be 100%.
`O=c1[nH]c(-c2ccc(CO)o2)nc2ccccc12`: the MIC in test [1] and in test [3] was over 128 µg/mL throughout. Further, the Activity in test [2] is 99%.
For the compound `O=C(O)c1ccc(COc2cccc(-c3nc4ccccc4c(=O)[nH]3)c2)cc1`, the MIC in test [1] and in test [3] was over 128 µg/mL throughout. Also, in test [2], the Activity was 85%.
Regarding `O=c1[nH]c(-c2ccc(OCc3cccc(Cl)c3)cc2)nc2ccccc12`, the MIC in test [1] and in test [3] was over 128 µg/mL each time. Besides, in test [2], the Activity stood at 95%.
For `O=C(O)c1ccc(COc2ccc(-c3nc4ccccc4c(=O)[nH]3)cc2)cc1`, the minimum inhibitory concentration (MIC) in test [1] and in test [3] was over 128 µg/mL throughout. Besides, the Activity in test [2] came to 92%.
Turning to `O=c1c2ccccc2nc(-c2ccco2)n1CCO`, the MIC in test [1] and in test [3] was over 128 µg/mL throughout. Further, in test [2], the Activity amounted to 91%.
With `O=c1[nH]c(-c2ccc(F)c(F)c2)nc2ccccc12`, the MIC in test [1] and in test [3] was over 128 µg/mL each time. The Activity in test [2] came to 67%.
Consider `O=C(O)Cn1c(-c2ccoc2)nc2ccccc2c1=O`, for which the MIC in test [1] and in test [3] was over 128 µg/mL in each case. The Activity in test [2] stood at 74%.
For `O=c1[nH]c(-c2ccc3cccc(O)c3n2)nc2ccccc12`, the MIC in test [1] and in test [3] was over 128 µg/mL each time. The Activity in test [2] was 84%.
For the compound `O=c1[nH]c(-c2cccc(OCc3ccc(C(F)(F)F)cc3)c2)nc2ccccc12`, the MIC in test [1] and in test [3] was over 128 µg/mL in each case. The Activity in test [2] came out at 88%.
For the compound `O=c1[nH]c(-c2ccnc(N3CCOCC3)c2)nc2ccccc12`, the minimum inhibitory concentration (MIC) in test [1] and in test [3] was over 128 µg/mL in each case. The Activity in test [2] turned out to be 70%.
As to `O=c1[nH]c(-c2ccc(Cn3cncn3)nc2)nc2ccccc12`, the minimum inhibitory concentration (MIC) in test [1] and in test [3] was over 128 µg/mL in each case. Also, the Activity in test [2] stood at 80%.
Turning to `O=c1[nH]c(-c2ccc3ccccc3n2)nc2ccccc12`, the MIC in test [1] and in test [3] was over 128 µg/mL throughout. Moreover, the Activity in test [2] is 100%.
`Oc1nc(-c2cccs2)nc2ccccc12`: the MIC in test [1] and in test [3] was over 128 µg/mL throughout. For the same compound, the Activity in test [2] is 83%.
For `O=Cc1ccc(-c2nc3ccccc3c(=O)[nH]2)cc1`, the MIC in test [1] and in test [3] was over 128 µg/mL each time. For the same compound, in test [2], the Activity came out at 58%.
As for `O=c1[nH]c(-c2cc(F)cc3c2OCOC3)nc2ccccc12`, the MIC in test [1] and in test [3] was over 128 µg/mL throughout. Besides, the Activity in test [2] was 99%.
For `CN(C)c1ccc(-c2nc(O)c3ccccc3n2)cc1`, the minimal inhibitory concentration (MIC) in test [1] and in test [3] was over 128 µg/mL each time. In test [2], the Activity is 97%.
For the compound `O=C(O)c1cccc(COc2ccc(-c3nc4ccccc4c(=O)[nH]3)cc2)c1`, the MIC in test [1] and in test [3] was over 128 µg/mL in each case. Besides, the Activity in test [2] is 85%.
